System: A549 tumor
Test: A549 xenograft in NSG-SGM3 humanized mouse model
Type: in vivo, mice
Conditions: Hu-NSG-SGM3 versus NSG-SGM3, β-lap 0.2 mg i.t. four times
Description: FIGS. 2A-F. β-Lap's antitumor effect is CD8^+ T cell dependent. (FIG. 2A) MC38 cells were subcutaneously transplanted into C57BL/6 WT (n=5-6/group) and Rag1 KO mice (n=5/group), respectively. Tumor bearing mice were treated with β-lap (0.3 mg, i.t.) every other day for four times. Numbers of tumor free mice after treatment were shown. (FIG. 2B) MC38 tumor bearing C57BL/6 mice (n=5/group) were treated with β-lap (0.3 mg, i.t.) every other day for four times. For CD8^+ T cell depletion, 200 μg of anti-CD8 antibodies were intraperitoneally injected four times at three days interval during the treatment. […] (FIG. 2D) Naïve (n=5/group) and β-lap cured MC38 tumor free (n=7/group) C57BL/6 mice were rechallenged subcutaneously with 3×10^6 MC38 cells on the opposite site from the primary tumor 30 days after complete rejection, and tumor growth curve was monitored. […] Tumor growth was measured twice a week. Data are shown as mean±SEM from three independent experiments. **P<0.01, ***P<0.001, ****P<0.0001 determined by two-way ANOVA.
For NSG-SGM3 humanized mouse model, four-week-old NSG-SGM3 female mice were irradiated with 100 cGy (X-ray irradiation with X-RAD 320 irradiator) one day prior to human CD34+ cells transfer. […] Tumor volumes were measured at least twice weekly. […]

Q: For `CC1(C)CCC2=C(O1)c1ccccc1C(=O)C2=O` [β-lap, β-lapachone], which “tumor control in presence of human immune system” value is on record?
A: much better tumor control

From US20220160703A1, “TUMOR-SELECTIVE COMBINATION THERAPY” (The Board of Regents of The University of Texas System, priority 2019, published 2022)
